Molecules are shown by their SMILES. Like-named read-outs stand apart in the source and are kept apart here.

Experiment in all cases: Kinase panel profiling at 1 µmol/L (MSA or IMAP), percentage inhibition
Common to all, as to type: biochemical

Experiment [1] addresses panel of 255 wild-type kinases (Homo sapiens, UniProt Q16654). To be noted: kinase PDHK4; 1 µmol/L single concentration; read-out: %-inhibition at 1 µmol/L, PDHK4.
Experiment [2] has as its target panel of 255 wild-type kinases (Homo sapiens, UniProt P31751). The note with it: AKT2 kinase assay; 1 µmol/L single concentration; read-out: %-inhibition AKT2.
For experiment [3], the target named is panel of 255 wild-type kinases (Homo sapiens, UniProt P07948). The note with it: kinase LYNa; 1 µmol/L single concentration; read-out: %-inhibition at 1 µmol/L, LYNa.
The target in experiment [4] is panel of 255 wild-type kinases (Homo sapiens, UniProt O14578). The note with it: kinase CRIK; 1 µmol/L single concentration; read-out: %-inhibition at 1 µmol/L, CRIK.
Experiment [5] has as its target panel of 255 wild-type kinases (Homo sapiens, UniProt P45983). To be noted: kinase JNK1; 1 µmol/L single concentration; read-out: %-inhibition at 1 µmol/L, JNK1.
Experiment [6] deals with T1, panel of 255 wild-type kinases (Homo sapiens, UniProt Q12851).
T1 sequence (Q12851 1-820): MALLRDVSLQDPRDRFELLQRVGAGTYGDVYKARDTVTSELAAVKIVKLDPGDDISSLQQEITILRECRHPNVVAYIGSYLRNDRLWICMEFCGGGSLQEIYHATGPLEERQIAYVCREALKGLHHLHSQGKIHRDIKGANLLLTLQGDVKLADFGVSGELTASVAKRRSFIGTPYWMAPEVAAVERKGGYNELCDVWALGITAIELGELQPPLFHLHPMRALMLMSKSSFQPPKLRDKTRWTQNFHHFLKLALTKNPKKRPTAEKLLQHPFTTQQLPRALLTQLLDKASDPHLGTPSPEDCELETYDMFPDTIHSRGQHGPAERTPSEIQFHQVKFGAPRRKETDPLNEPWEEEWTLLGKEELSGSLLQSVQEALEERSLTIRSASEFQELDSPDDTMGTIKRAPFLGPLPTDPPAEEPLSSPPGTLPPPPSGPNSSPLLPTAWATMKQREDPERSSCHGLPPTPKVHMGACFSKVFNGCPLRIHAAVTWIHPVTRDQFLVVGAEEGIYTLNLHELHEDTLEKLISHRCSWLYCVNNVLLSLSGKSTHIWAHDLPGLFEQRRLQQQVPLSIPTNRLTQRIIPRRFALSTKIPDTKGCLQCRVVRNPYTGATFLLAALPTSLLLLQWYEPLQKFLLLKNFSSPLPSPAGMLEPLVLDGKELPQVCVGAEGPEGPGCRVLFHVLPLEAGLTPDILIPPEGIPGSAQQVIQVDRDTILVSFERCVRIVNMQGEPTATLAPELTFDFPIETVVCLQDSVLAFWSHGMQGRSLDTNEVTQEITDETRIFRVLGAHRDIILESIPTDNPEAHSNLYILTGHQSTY
The note with it: kinase MAP4K2; 1 µmol/L single concentration; read-out: %-inhibition at 1 µmol/L, MAP4K2.

Experiment [7] deals with panel of 255 wild-type kinases (Homo sapiens, UniProt Q13555). To be noted: CaMK2γ kinase assay; 1 µmol/L single concentration; read-out: %-inhibition CaMK2γ.
Experiment [8] concerns the target panel of 255 wild-type kinases (Homo sapiens, UniProt P06213). To be noted: kinase INSR; 1 µmol/L single concentration; read-out: %-inhibition at 1 µmol/L, INSR.
For experiment [9], the target named is panel of 255 wild-type kinases (Homo sapiens, UniProt Q9HBH9). The note with it: MNK2; 1 µmol/L single concentration; read-out: %-inhibition, MNK2.
Experiment [10] addresses panel of 255 wild-type kinases (Homo sapiens, UniProt Q14012). To be noted: CaMK1α kinase assay; 1 µmol/L single concentration; read-out: %-inhibition CaMK1α.
The target of experiment [11] is panel of 255 wild-type kinases (Homo sapiens, UniProt P54646). The note with it: AMPKα2/β1/γ1 kinase assay; 1 µmol/L single concentration; read-out: %-inhibition AMPKα2/β1/γ1.
The target in experiment [12] is panel of 255 wild-type kinases (Homo sapiens, UniProt P48730). To be noted: kinase CK1δ; 1 µmol/L single concentration; read-out: %-inhibition at 1 µmol/L, CK1δ.
For experiment [13], the target named is panel of 255 wild-type kinases (Homo sapiens, UniProt Q15303). The note with it: kinase HER4; 1 µmol/L single concentration; read-out: %-inhibition at 1 µmol/L, HER4.
In experiment [14] the target is panel of 255 wild-type kinases (Homo sapiens, UniProt P49759). To be noted: kinase CLK1; 1 µmol/L single concentration; read-out: %-inhibition at 1 µmol/L, CLK1.
The target in experiment [15] is panel of 255 wild-type kinases (Homo sapiens, UniProt P24941). The note with it: 1 µmol/L single concentration.
Experiment [16] concerns the target panel of 255 wild-type kinases (Homo sapiens, UniProt Q9HC98). To be noted: NEK6; 1 µmol/L single concentration; read-out: %-inhibition, NEK6.
For experiment [17], the target named is panel of 255 wild-type kinases (Homo sapiens, UniProt Q96RG2). The note with it: PASK; 1 µmol/L single concentration; read-out: %-inhibition, PASK.

As for `O=C(Nc1cnn2ccc(N3CCC[C@@H]3c3cc(F)ccc3F)nc12)N1CC[C@H](O)C1` [larotrectinib], the inhibition at 1 µM is 2% in experiment [1]; -5.27% in experiment [2]; 5% in [3]; -4.22% in [4]; -3.55% in [5]; -2% in experiment [6]. Also, the inhibition at 1 µM in [7] is -0.126%; in experiment [8], 2%; in experiment [9], -8.51%; in experiment [10], -1.63%; in experiment [11], -6%; in experiment [12], -8%. In addition, the inhibition at 1 µM is 10% in [13]; 5.31% in experiment [14]; -2.44% in experiment [15] (CDK2/CycA2 kinase assay, read-out: %-inhibition CDK2/CycA2); -18% in [15] (CDK2/CycE1 kinase assay, read-out: %-inhibition CDK2/CycE1); 0.246% in experiment [16]; 0.745% in [17].

The values are drawn from paper PMC9516332 (Frontiers in Oncology, 2022).
